Data taken from patent US20040034052A1, “Tricyclic derivatives of indole with antiangiogenic activity” (priority 2003, published 2004).
Where two headings read alike, the source gives them in different places.

How the values were obtained:
[1] = test system: LoVo (human colon carcinoma); assay: Sulforodamine B antiproliferative test, sensitive LoVo cells; type: cell-based; settings: 24 hours incubation, survival after another 48 hours, read-out: IC50 +/− SD, antiproliferative activity vs sensitive cell, LoVo
Method: (§1) For the cytotoxic activity, proliferation screening tests were used, with different tumour lines, such as MCF-7 (human mammary carcinoma), LoVo (human colon carcinoma), MES-SA (human uterine sarcoma), or K-562 (human chronic myeloid leukaemia).
(§2) The test used was the sulforodamine B test used for screening anticancer products at the National Cancer Institute (Skehan, 1990). The molecules at scalar concentrations over a range from 500 μM to 0.97 μM, were incubated in parallel with different human cell lines for 24 hours. After removing the products, cell survival was investigated after another 48 hours with the NCI test. The antiproliferative capacity of the compounds was quantified in terms of IC50±SD (concentration of the molecule that inhibits 50% of cell survival) processed using a curve fitting program (De Lean et al., 1978).

[2] = test system: MCF-7 (human mammary carcinoma); assay: Sulforodamine B antiproliferative test, sensitive MCF-7 cells; type: cell-based; settings: MCF7, MCF-7 sensitive, 24 hours incubation, survival after another 48 hours, read-out: IC50 +/− SD, antiproliferative activity vs sensitive cell, MCF-7
Method: as §1, §2

[3] = test system: BMEC (bovine medullary endothelial cell); assay: Chemotactic assay with the Boyden chamber on BMEC; type: cell-based; settings: for % inhibition of migration at IC0/D.S.: BMEC, at IC0, chemotactic stimulus 1% bovine serum in DMEM
Method: For the antiangiogenic activity the chemotactic assay with the Boyden chamber was performed (Werner F., Goodwin R. H. and Leonard E. J., Journal of Immunological Methods 1980; 33, 239-247), using both bovine aortal endothelial cell (BAEC) cultures and bovine medullary endothelial cell (BMEC) cultures. The assays were performed at IC0 (maximum non-cytotoxic concentration) and the results expressed as % inhibition of migration across a porous filter in response to a chemotactic stimulus (1% bovine serum in DMEM culture medium). This finding was obtained by direct cell count under the optical microscope, and the percentage migration inhibition was calculated according to the formula (T−C/C)×100, where T=mean number of cells migrating in the sample and C=mean number of cells migrating in the control. The control consisted of cells which migrated towards the serum, not treated with the study molecules, and included in every chemotaxis experiment. The data refer to the readings of 5 microscopic fields/well in 4 independent chemotaxis wells per sample.

[4] = Cytotoxicity on endothelial cells (BMEC); type: cell-based, bovine; settings: bovine, BMEC (bovine medullary endothelial cell) cultures
[5] = test system: BMEC (bovine medullary endothelial cell); assay: Cytotoxicity on endothelial cells (BMEC); type: cell-based; settings: BMEC
[6] = test system: MCF-7 resistant cell (MCF-7/Dx, overexpressing P-glycoprotein, resistant to doxorubicin); assay: Antiproliferative activity vs resistant cells, MCF-7; type: cell-based; settings: Homo sapiens, MCF7; MCF-7 resistant (doxorubicin-resistant); read-out: IC50 +/− SD, antiproliferative activity vs resistent cell, MCF-7
Method: as §2
(§3) The cytotoxicity of the molecules on tumour lines resistant to chemosensitising activity was assessed on various tumour cell lines overexpressing P-glycoprotein and resistant to doxorubicin (100-fold) and cross-resistant to daunorubicin, actinomycin D, mitoxantrone, vincristine, vinblastine, taxol, colchicine, and etoposide. The cytotoxicity of the products was assessed using the same test adopted for the sensitive tumour cells.

[7] = test system: LoVo resistant cell (LoVo/Dx, overexpressing P-glycoprotein, resistant to doxorubicin); assay: Antiproliferative activity vs resistant cells, LoVo; type: cell-based; settings: Homo sapiens, read-out: IC50 +/− SD, antiproliferative activity vs resistent cell, LoVo
Method: as §2, §3

MCF-7/Dx line = assay: Potentiation of doxorubicin cytotoxicity (MDR ratio), MCF-7/Dx; type: cell-based, human; settings: compound at 11 μM
Method: as §3
(§4) Later, the products were assayed at a concentration lower than or equal to the one that inhibits 10% of cell survival. At this concentration, the molecules were tested in parallel in the absence and presence of doxorubicin. MDR ratios were calculated for the IC50 values in order to establish the degree of potentiation of the cytotoxic activity of doxorubicin induced by the product (MDR ratio) (De Lean et al. (1978) A. J. Physiol. 235, E97-102); (Skehan et al. (1990) J. Natl. Cancer Inst. 82, 1107-1112).

MCF-7 cells = assay: Cell cycle and apoptosis analysis (propidium iodide, FACS) on MCF-7 cells; type: cell-based, human
Method: The cell cycle and apoptosis analysis on a tumour line was done by incubating the products for 24 hours at a concentration equal to approximately the IC50 Values with MCF-7 cells. The molecules were removed and the cell cycle and apoptosis were assessed at different times (0, 24, 48 hours). The cells were stained with propidium iodide and analysed with a cytofluorimeter (FACS) ([…] fluorescence activated cell sorter) by means of an argon ion laser set at 488 nm for the excitation. To assess the percentage of cells in the various stages of the cycle, linear DNA histograms were analysed with a cell fit program distributed by the equipment manufacturer. For the analysis of apoptosis, a region was inserted below the G0/G1 peak of the control population and the data were analysed with software supplied by the company (Lysis II-C32).

LoVo/Dx cell line = assay: Potentiation of doxorubicin cytotoxicity (MDR ratio), LoVo/Dx; type: cell-based, human; settings: compound at 11 μM
Method: as §3, §4

[8] = read-out: IC50 (μM), cytotoxicity on BMEC

Row | IC50 [6] | melting point | IC50 [7] | Structure (SMILES) | IC50 [1] | IC50 [2] | % inhibition of migration at IC0/D.S. [3] | IC50 [4, 8] | IC0 (μM) (maximum non-cytotoxic concentration) [5] | further results
1 | – | – | – | c1[nH]c2cc3c(cc2c1C1CCCc2[nH]c4cc5c(cc4c21)OCO5)OCO3 (racemic) [ST1777, 4-(5′,6′-methylendioxy-1H-indol-3-yl)-6,7-methylendioxy-tetrahydro-1H-carbazole] | 0.64 µM | 0.96 µM | – | – | – | –
2 | 39 µM | – | – | Oc1ccc2[nH]cc(C3CCCCc4c3[nH]c3ccc(O)cc43)c2c1 (racemic) [ST1783, 1-(5″-hydroxy-1H-indol-3-yl)-5′-hydroxy-indo[2,3a]-cycloheptan.] | 29 µM | 27 µM | −46% | 60 µM | 10 µM | –
3 | – | 207 °C | – | c1ccc2c(C3CCCc4c3[nH]c3ccccc43)c[nH]c2c1 (racemic) [ST1728, 1-(1H-indol-3-yl)-tetrahydro-1H-carbazole] | 22.8 µM | 22 µM | – | – | – | –
4 | 24.8 µM | 286 °C (dec.) | 17 µM | c1ccc(COc2ccc3[nH]cc(C4CCCCc5c4[nH]c4ccc(OCc6ccccc6)cc54)c3c2)cc1 (racemic) [ST1765, 1-(5″-benzyloxy-indol-3-yl)-5′-benzyloxy-indo[2,3a]-cycloheptan.] | 10.5 µM | 11.5 µM | – | – | – | –
5 | 71 µM | – | 65.1 µM | c1ccc(COc2ccc3[nH]cc(C4CCCCc5[nH]c6ccc(OCc7ccccc7)cc6c54)c3c2)cc1 (racemic) [ST1778, 5-(5″-benzyloxy-indol-3-yl)-5′-benzyloxy-indo[2,3a]-cycloheptan.] | 54.5 µM | 28.5 µM | −40 +/− 4% | 50 µM | 25 µM | –
6 | 21.1 µM | 204 to 206 °C (dec.) | 21.7 µM | CC1(C)OCC(C2c3c([nH]c4ccccc34)C(c3c[nH]c4ccccc34)C3OC(C)(C)OC32)O1 (racemic) [ST1372, 1-(indol-3-yl)-2,3-O-isopropylidene-4-(2,3-O-isopropylidene-ethyl)-tetrahydrocarbazole] | 21.7 µM | 21.1 µM | – | – | – | increase of the activity of Doxorubicin (MDR ratio) (MCF-7/Dx line): 3,5 times; increases and blocks in G0/G1 (% of the cell) (MCF-7 cells; MCF-7, 20 μM, relative to control): 23%; increases and blocks in G0/G1 (% of the cell) (MCF-7 cells; MCF-7, 40 μM, relative to control): 32%; G0/G1 (%) (MCF-7 cells; MCF-7, compound at 20 μM): 20 μM = 54.4%; G2 + M (%) (MCF-7 cells; MCF-7, compound at 20 μM): 20 μM = 11.4%; S(%) (MCF-7 cells; MCF-7, compound at 20 μM): 20 μM = 34.2%; G0/G1 (%) (MCF-7 cells; MCF-7, compound at 40 μM): 40 μM = 57.8%; G2 + M (%) (MCF-7 cells; MCF-7, compound at 40 μM): 40 μM = 5.4%; S(%) (MCF-7 cells; MCF-7, compound at 40 μM): 40 μM = 36.8%; Apoptosis 48 h (%) (MCF-7 cells; MCF-7, compound at 40 μM): 40 μM = 16%; increase of the activity of Doxorubicin (MDR ratio) (LoVo/Dx cell line): 3,5 times
7 | 58.6 µM | 200 °C (dec.) | – | c1[nH]c2cc3c(cc2c1C1CCCc2c1[nH]c1cc4c(cc21)OCO4)OCO3 (racemic) [ST1751, 1-(5′,6′-methylendioxy-1H-indol-3-yl)-6,7-methylendioxy-tetrahydro-1H-carbazole] | – | – | – | – | – | –
8 | – | 184 °C (dec.) | – | c1[nH]c2cc3c(cc2c1C1CCCCc2c1[nH]c1cc4c(cc21)OCO4)OCO3 (racemic) [ST1749, 1-(5″, 6″-methylendioxy-indol-3-yl)-5′,6′-methyleridioxy-indo [2,3-a]-cycloeptane] | – | – | −40 +/− 3% | > 200 µM | 100 µM | –
9 | – | 220 °C (dec.) | – | OCCCCC(c1cc2cc3c(cc2[nH]1)OCO3)c1c[nH]c2cc3c(cc12)OCO3 (racemic) [ST1423, (R,S)-5-hydroxy-1,1-di-(5′,6′-methylendioxy-indol-2-yl,5 ″,6″-methylendioxy-indol-3-yl)-pentane] | – | – | – | – | – | –
10 | 68.3 µM | – | 23.8 µM | c1ccc2c(C3CCCCc4[nH]c5ccccc5c43)c[nH]c2c1 (racemic) [ST1621, 5-(indol-3-yl)-indo [2,3a]-cycloheptan.] | 34.8 µM | 22.5 µM | −43 +/− 4% | 10 µM | 0.1 µM | –
11 | – | 240 °C (dec.) | – | OCCCC(c1c[nH]c2cc3c(cc12)OCO3)c1c[nH]c2cc3c(cc12)OCO3 [ST1730, 4-hydroxy-1,1-di-(5′,6′-methylendioxy-indol-3-yl)-butane] | – | – | – | – | – | –
12 | 28.4 µM | – | 25.2 µM | c1ccc2c(C3CCCCc4c3[nH]c3ccccc43)c[nH]c2c1 (racemic) [ST1381, 1-(indol-3-yl)-indo [2,3a]-cycloheptan.] | 22.5 µM | 28.5 µM | −61.7% | – | 30 µM | chemotaxis of endothelial cells (in words) [3]: active for the chemotaxys; chemotaxis of endothelial cells (in words) ([3]; listed as ST 1381): the better anti-chemiotactic compound; IC50 ([4]; endothelial cell, read-out: cytotoxicity vs endotelial cell (IC)): > 100 µM; IC50 [5]: > 100 µM; increases and blocked in G0/G1 (% of the cell line) (MCF-7 cells; MCF-7, 30 μM, relative to control): 32%; G0/G1 (%) (MCF-7 cells; MCF-7, compound at 30 μM): 30 μM = 57.7%; G2 + M (%) (MCF-7 cells; MCF-7, compound at 30 μM): 30 μM = 10.1%; S(%) (MCF-7 cells; MCF-7, compound at 30 μM): 30 μM = 32.2%; Apoptosis 48 h (%) (MCF-7 cells; MCF-7, compound at 30 μM): 30 μM = 3.3%
13 | – | 200 °C (dec.) | – | OCCCCC(c1c[nH]c2cc3c(cc12)OCO3)c1c[nH]c2cc3c(cc12)OCO3 [ST1422, 5-hydroxy-1,1-di-(5,6-methylendioxy-indol-3-yl)-pentane] | – | – | – | – | – | –
14 | – | 182 °C | – | c1ccc2c(C3CCCc4[nH]c5ccccc5c43)c[nH]c2c1 (racemic) [ST1729, 4-(1H-indol-3-yl)-tetrahydro-1H-carbazole] | 50.5 µM | 35 µM | −40 +/− 3% | 80 µM | 25 µM | –
